{"source": "patent US20100286145A1", "about": "“ISOPHTHALAMIDE DERIVATIVES INHIBITING BETA-SECRETASE ACTIVITY” (CoMentis, Inc., priority 2007, published 2010)", "key": {"[1]": {"assay": "Brain pharmacokinetic analysis / brain penetration in rats, i.v. bolus", "type": "in vivo", "source_text": "(§1) Quantitative analysis was used to determine the concentration of a test inhibitor, N1-((2S,3R)-4-((5-(2-fluoropropan-2-yl)pyridin-3-yl)methylamino)-3-hydroxy-1-phenylbutan-2-yl)-N3-methyl-N3-((4-methylthiazol-2-yl)methyl)isophthalamide, in biological tissues. The test inhibitor was extracted from a variety of biological samples followed by its selective identification and quantification from a standard curve prepared in the same extracted biological matrix. Briefly, this extraction is accomplished through a simple protein precipitation technique performed on collected plasma. The resultant extractions are then quantified using the LC/MS protocol as detailed herein.\n(§2) Quantitative analysis was performed through LC/MS analysis. The system was composed of an Eksigent Express LC 100 microflow HPLC system, coupled with an Eksigent CXP C-8AR 0.3*50 mm, or other suitable column, and a Thermo TSQuantum Classic triple quadrupole mass spectrometer running in positive ion, SRM mode. The HPLC buffers were 99.5% H2O, 0.5% formic acid (buffer A) and 99.5% acetonitrile, 0.5% formic acid (buffer B). Typically, a 10 μl aliquot was injected onto the column followed by a 1.5 minute chromatographic analysis. This analysis was conducted at a 20 μl/min flow rate, and composed of a gradient from 15% B to 90% B followed by a 98% B flush to facilitate compound separation and quantitation. Each sample was analyzed in duplicate, with QC, and system blank samples run after every sample set. The column effluent was analyzed in real time by MS/MS to allow the positive identification and quantification of the test inhibitor by compound fingerprint analysis. This was accomplished by allowing only species of 586.3 Da to pass through the first quadrupole, followed by collision induced decay in quadrupole two and scanning analysis of selected daughter ions specific to the test compound in quadrupole three. The collected data was analyzed using the LCQuan software package from Thermo Electron, to determine the levels of the test compound in the samples.\nMale Sprague-Dawley Rats (200-400 g) were obtained from Taconic Farms (Hudson, N.Y.) with a pre-implanted jugular vein cannula (JVC) for blood sampling. A solution (5 mg/mL, free base equivalents) of the test inhibitor, N1-((2S,3R)-4-((5-(2-fluoropropan-2-yl)pyridin-3-yl)methylamino)-3-hydroxy-1-phenylbutan-2-yl)-N3-methyl-N3-((4-methylthiazol-2-yl)methyl)isophthalamide mono-citrate salt, was prepared freshly in 35% hydroxypropyl-β-cyclodextrin (HPBCD). Intravenous bolus injection was conducted using a 25 gauge needle via the tail vein. Animals were supplied with water and a commercial rodent diet ad libitum prior to and during the study.\nBlood samples (˜100 μl at each time point) for plasma pharmacokinetic (PK) analysis were collected from the JVC cannula into lithium-heparin tubes at 2 min, 5 min, 15 min, 30 min, 45 min, 1 hr, 2 hr, 4 hr, 6 hr and 24 hr post-dose (Group A in Table 2). For compartmental PK analysis, blood and brain were collected from animals in Group B (Table 2) at 15 min, 1 hr, 2 hr, 4 hr, and 6 hr post-dose, with three rats assigned to each time point. Animals were deeply anesthetized with isoflurane and blood collected by cardiocentesis. Plasma separated by centrifugation at 6000 rpm×10 min. Brain hemispheres were subsequently harvested and snap frozen in liquid nitrogen. Plasma and brain samples were subsequently stored at −70° C.\nBioanalysis of the test inhibitor from plasma and brain extracts was performed according to standard procedures. Briefly, 20 μl of plasma was extracted with 100 μl of acetonitrile using a 96-well Solvinert filter plate (Millipore). Samples were subjected to LC/MS/MS analysis using an Eksigent Express LC 100 microflow HPLC system, coupled with an Eksigent CXP C-18AR 0.3*50 mm column, and a Thermo TSQuantum Classic triple quadrupole mass spectrometer running in positive ion, SRM mode. […]"}, "[2]": {"assay": "Plasma pharmacokinetic analysis in rats, i.v. bolus", "type": "in vivo", "details": "male, Sprague-Dawley, rat", "source_text": "as §1\nWhole blood from animals dosed with the test inhibitor was collected in lithium heparin anti-coagulant tubes. These samples were centrifuged to allow the subsequent collection of plasma, with plasma aliquots immediately stored at −70° C. For quantitative analysis, the samples were then thawed on ice and a 20 μl aliquot was added to a well of a multi-screen Solvinert filter plate (Millipore). A five-fold volume of acetonitrile was added to each sample to facilitate protein precipitation, the samples were multiply aspirated or shaken to mix and then centrifuged at 4500 rpm for 15 minutes to filter the samples, with the supernatant being collected in an underlying 96 well receiving plate. The receptor plate was then dried via speed vacuum at 40° C. The sample was reconstituted by multiple aspirations with a reconstitution buffer composed of 10% acetonitrile, 10% DMSO, 80% H2O with an internal standard added at a concentration of 100 ng/ml. Standards of the test inhibitor were prepared in 100% DMSO for the generation of a standard curve for sample quantification. The samples range from 1 to 100000 ng/ml, as required for the analysis. A 1 μl aliquot of standard was added per 10 μl of blank plasma to construct a calibration curve, 0.1 ng/ml to 10000 ng/ml, prior to the protein precipitation step again as required for analysis. Quality control samples were prepared identically, from an alternate standard source and a single sample was prepared with an identical volume spike added post precipitation and collection to monitor the extraction efficiency. This method was applicable to plasma from all species currently being tested. Solvinert filter wells were pre-washed with 100 μl of 10% MeOH/90% ACN followed by centrifugation at 4500 RPM for 10 min prior to use.\nas §2\nMale Sprague-Dawley Rats (200-400 g) were obtained from Taconic Farms (Hudson, N.Y.) with a pre-implanted jugular vein cannula (JVC) for blood sampling. […]"}, "[3]": {"details": "male, Sprague-Dawley, rat, in vivo, iv, 10 mg/kg"}}, "data": [{"compound": "Cc1csc(CN(C)C(=O)c2cccc(C(=O)N[C@@H](Cc3ccccc3)[C@H](O)CNCc3cncc(C(C)(C)F)c3)c2)n1", "note": "[N1-((2S,3R)-4-((5-(2-fluoropropan-2-yl)pyridin-3-yl)methylam] [N1-((2S,3R)-4-((5-(2-fluoropropan-2-yl)pyridin-3-yl)methylamino)-3-hydroxy-1-phenylbutan-2-yl)-N3-methyl-N3-((4-methylthiazol-2-yl)methyl)isophthalamide]", "values": [{"measurement": "Penetration (%), brain relative to plasma AUC24 hr", "setting": "[1]; [3]", "result": 47, "unit": "%"}]}, {"compound": "Cc1csc(CN(C)C(=O)c2cccc(C(=O)N[C@@H](Cc3ccccc3)[C@H](O)CNCc3cncc(C(C)(C)F)c3)c2)n1", "note": "[test inhibitor, N1-((2S,3R)-4-((5-(2-fluoropropan-2-yl)pyridin-3-yl)methylamino)-3-hydroxy-1-phenylbutan-2-yl)-N3-methyl-N3-((4-methylthiazol-2-yl)methyl)isophthalamide]", "values": [{"measurement": "concentration at 0.25 h", "setting": "[2]; in vivo, iv, 10 mg/kg", "result": 2500, "unit": "ng/mL"}, {"measurement": "concentration at 1 h", "setting": "[2]; in vivo, iv, 10 mg/kg", "result": 548, "unit": "ng/mL"}, {"measurement": "concentration at 2 h", "setting": "[2]; in vivo, iv, 10 mg/kg", "result": 130, "unit": "ng/mL"}, {"measurement": "concentration at 4 h", "setting": "[2]; in vivo, iv, 10 mg/kg", "result": 31.1, "unit": "ng/mL"}, {"measurement": "concentration at 6 h", "setting": "[2]; in vivo, iv, 10 mg/kg", "result": 5.7, "unit": "ng/mL"}, {"measurement": "concentration at 24 h", "setting": "[2]; in vivo, iv, 10 mg/kg", "result": 2.2, "unit": "ng/mL"}, {"measurement": "half-life", "setting": "[2]; plasma, iv, 10 mg/kg, rats, i.v. bolus 10 mg/kg, read-out: Plasma Terminal phase t1/2 (converted)", "result": 13.1, "unit": "h"}, {"measurement": "half-life", "setting": "[2]; plasma, iv, 10 mg/kg, rats, single 10 mg/kg intravenous dose, read-out: half-life in plasma", "result": "6 to 13", "unit": "h"}, {"measurement": "AUC(0-t)", "setting": "[2]; plasma, iv, rats, single dose i.v. 10 mg/kg, read-out: AUC24 hr, Plasma", "result": 2580, "unit": "ng·h/mL"}, {"measurement": "Brain Terminal phase t1/2", "setting": "[1]; [3]", "result": 34.3, "unit": "h"}, {"measurement": "MRT last", "setting": "[1]; [3]", "result": 12, "unit": "h"}, {"measurement": "Penetration (%), brain relative to plasma AUC24 hr", "setting": "[1]; [3]", "result": 46.8, "unit": "%"}, {"measurement": "concentration at 0.25 h", "setting": "[1]; [3]", "result": 160, "unit": "ng/mL"}, {"measurement": "concentration at 1 h", "setting": "[1]; [3]", "result": 71.1, "unit": "ng/mL"}, {"measurement": "concentration at 2 h", "setting": "[1]; [3]", "result": 72.4, "unit": "ng/mL"}, {"measurement": "concentration at 4 h", "setting": "[1]; [3]", "result": 28, "unit": "ng/mL"}, {"measurement": "concentration at 6 h", "setting": "[1]; [3]", "result": 42.7, "unit": "ng/mL"}, {"measurement": "concentration at 24 h", "setting": "[1]; [3]", "result": 52.5, "unit": "ng/mL"}, {"measurement": "half-life", "setting": "[1]; male, Sprague-Dawley, rat, in vivo, iv, 10 mg/kg, Brain Terminal phase t1/2", "result": 34, "unit": "h"}, {"measurement": "AUC(0-t)", "setting": "[1]; male, Sprague-Dawley, rat, in vivo, iv, rats, single dose i.v. 10 mg/kg, read-out: AUC24 hr, Brain", "result": 1210, "unit": "ng·h/mL"}, {"measurement": "Brain AUC24 hr", "setting": "[1]; rats, i.v. bolus 10 mg/kg", "result": 1206.2, "unit": "ng·h/mL"}]}, {"compound": "Cc1csc(CN(C)C(=O)c2cccc(C(=O)N[C@@H](Cc3ccccc3)[C@H](O)CNCc3cncc(C(C)(C)F)c3)c2)n1", "note": "[N1-((2S,3R)-4-((5-(2-fluoropropan-2-yl)pyridin-3-yl)methylamino)-3-hydroxy-1-phenylbutan-2-yl)-N3-methyl-N3-((4-methylthiazol-2-yl)methyl)isophthalamide]", "values": [{"measurement": "AUC", "setting": "[2]; plasma, rats, single 10 mg/kg intravenous dose, read-out: 24 hr plasma AUC", "result": 2580, "unit": "ng·h/mL"}, {"measurement": "Kp", "setting": "[1]; male, Sprague-Dawley, rat, in vivo, iv, 10 mg/kg, Penetration (%), brain relative to plasma AUC24 hr", "result": 0.468}]}]}
